According to patent US20210106542A1, “COMPOSITION AND METHOD FOR INHIBITING PLATELET AGGREGATION” (priority 2015, published 2021):

What was measured:
thrombin production = experiment: Thrombin generation test; format: biochemical, human
Procedure: Thrombin generation test, a clinical test to determine if a drug impedes blood clotting, was conducted as described below. […] The results are shown in Table 11, below, and in FIG. 5. The RQN combination decreased thrombin in a manner similar to other commonly used anti-platelet drugs, further indicating the safety of the RQN combination.

SAPs = experiment: SAP reduction compared to known anti-platelet drugs; format: cell-based, human
Procedure: SAPs were analyzed in the presence of resveratrol, quercetin, and naltrexone and compared to known anti-platelet drugs. Student's t-test with Turkey Post Hoc correction was used to determine significance levels comparing untreated to drug treated samples. The appropriate doses for other anti-platelet drugs were established by routine clinical use.

[1] = cited from earlier work; for Bioavailability: literature reference
[2] = system: control subject platelets; experiment: SAP levels at varying doses of R, Q, N alone or in combination, control subject; format: cell-based, human; settings: control patient
Procedure: (§1) Resveratrol, quercetin and naltrexone were tested in vitro using 100-microliter assay solutions with (A) a control subject platelets and (B) a POAG subject platelets. A marked reduction in SAPs at 1 μM resveratrol, 1 μM quercetin, 1 μM naltrexone in both the control subject platelets and the POAG patient's platelets was observed, representing a synergistic decrease as compared to the compounds alone.

POAG subject platelets = experiment: SAP levels at varying doses of R, Q, N alone or in combination, POAG subject; format: cell-based, human; settings: POAG patient
Procedure: as §1

[3] = system: superactivated platelets (SAPs); experiment: SAP inhibition by combinatorial drug treatment (flow cytometry of PRP); format: cell-based, human; settings: 50 μM; PRP 30 minutes at 37° C.; normalized relative to Control
Procedure: A venipuncture sample of 10 mL of blood is obtained from each patient. Of the 10 mL, a 3 mL aliquot of blood is added to a tube containing 0.5 mL of acid-citrate-dextrose solution (38 mM citric acid, 75 mM sodium citrate, 135 mM glucose) to prevent clotting. […] After centrifuging at 1100 rpm for 10 minutes at room temperature, platelet rich plasma (PRP), which is the upper layer, is removed. The PRP is transferred to a new tube, leaving about 0.5 mL above the buffy coat layer. The PRP-containing tube is incubated with 10 μL of thrombin and convulxin, two agonists that activate the platelets, for five minutes. […] APC-SA recognizes superactivated platelets that more readily bind the biotinylated fibrinogen to their surface. […]
Each sample is analyzed by a Beckman Coulter CyAn flow cytometer (Beckman Coulter, Fullerton, Calif.). Results are analyzed by the Summit program (Beckman Coulter). […] The SAPs are expressed as a percentage of the total number of events in the sample. […]
Aliquots of platelet rich plasma (PRP) were incubated with aqueous saline solutions of resveratrol only, quercetin only, naltrexone only, and with an admixture of resveratrol, quercetin and naltrexone (RQN) for a time period of 30 minutes at 37° C. […] Multi-color immunofluorescence was noted, and analyzed as described in Example 1, above.

Compound: CC(=O)Oc1ccccc1C(=O)O [Aspirin]
- Thrombin % Decrease (thrombin production; 100 μM, Alzheimer's (n = 6)): −75.46%
- Thrombin % Decrease (thrombin production; 100 μM, Control (n = 6)): −76.05%
- Thrombin % Decrease (thrombin production; 100 μM, POAG (n = 6)): −104.39%
- SAP % Decrease (SAPs; 100 μM, Alzheimer's (n = 6)): −17.32%
- SAP % Decrease (SAPs; 100 μM, Control (n = 6)): −17.00%
- SAP % Decrease (SAPs; 100 μM, POAG (n = 6)): −26.69%

Compound: CC(C)Cc1ccc(C(C)C(=O)O)cc1 (stereo not drawn) [Ibuprofen]
- Thrombin % Decrease (thrombin production; 100 μM, Alzheimer's (n = 6)): −95.08%
- Thrombin % Decrease (thrombin production; 100 μM, Control (n = 6)): −106.45%
- Thrombin % Decrease (thrombin production; 100 μM, POAG (n = 6)): −101.37%
- SAP % Decrease (SAPs; 100 μM, Alzheimer's (n = 6)): −15.30%
- SAP % Decrease (SAPs; 100 μM, Control (n = 6)): −31.40%
- SAP % Decrease (SAPs; 100 μM, POAG (n = 6)): −16.84%

Compound: O=C1CC[C@@]2(O)[C@H]3Cc4ccc(O)c5c4[C@@]2(CCN3CC2CC2)[C@H]1O5 [Naltrexone, 17-(cyclopropylmethyl)-4,5α-epoxy-3,14-dihydroxymorphinan-6-one]
- Bioavailability [1]: 33%^3
- SAP % ([2]; R/Q/N 0/0/1 uM): 30.80%
- SAP % Change ([2]; R/Q/N 0/0/1 uM): −15.13%
- SAP % ([2]; R/Q/N 0/0/10 uM): 20.77%
- SAP % Change ([2]; R/Q/N 0/0/10 uM): −42.77%
- SAP % ([2]; R/Q/N 0/0/50 uM): 18.03%
- SAP % Change ([2]; R/Q/N 0/0/50 uM): −50.32%
- SAP % (POAG subject platelets; R/Q/N 0/0/1 uM): 44.27%
- SAP % Change (POAG subject platelets; R/Q/N 0/0/1 uM): −22.17%
- SAP % (POAG subject platelets; R/Q/N 0/0/10 uM): 40.84%
- SAP % Change (POAG subject platelets; R/Q/N 0/0/10 uM): −28.20%
- SAP % (POAG subject platelets; R/Q/N 0/0/50 uM): 38.93%
- SAP % Change (POAG subject platelets; R/Q/N 0/0/50 uM): −31.56%
- % Reduction in SAPs [3]: 52.2%
- % SAPs [3]: 47.8%

Compound: O=c1c(O)c(-c2ccc(O)c(O)c2)oc2cc(O)cc(O)c12 [Quercetin, 3,3′,4′5,7-pentahydroxy-2-phenylchromen-4-one]
- Bioavailability [1]: 11%^2
- SAP % ([2]; R/Q/N 0/1/0 uM): 30.36%
- SAP % Change ([2]; R/Q/N 0/1/0 uM): −16.34%
- SAP % ([2]; R/Q/N 0/5/0 uM): 30.53%
- SAP % Change ([2]; R/Q/N 0/5/0 uM): −15.87%
- SAP % ([2]; R/Q/N 0/10/0 uM): 21.47%
- SAP % Change ([2]; R/Q/N 0/10/0 uM): −40.84%
- SAP % (POAG subject platelets; R/Q/N 0/1/0 uM): 49.18%
- SAP % Change (POAG subject platelets; R/Q/N 0/1/0 uM): −13.54%
- SAP % (POAG subject platelets; R/Q/N 0/5/0 uM): 48.25%
- SAP % Change (POAG subject platelets; R/Q/N 0/5/0 uM): −15.17%
- SAP % (POAG subject platelets; R/Q/N 0/10/0 uM): 43.27%
- SAP % Change (POAG subject platelets; R/Q/N 0/10/0 uM): −23.93%

Compound: Oc1ccc(/C=C/c2cc(O)cc(O)c2)cc1 [Resveratrol, 3,5,4′-trihydroxy-trans-stilbene]
- Half-life ([1]; in vivo): 1 to 3 h
- Bioavailability [1]: 5%^1
- SAP % ([2]; R/Q/N 1/0/0 uM): 32.20%
- SAP % Change ([2]; R/Q/N 1/0/0 uM): −11.27%
- SAP % ([2]; R/Q/N 5/0/0 uM): 30.98%
- SAP % Change ([2]; R/Q/N 5/0/0 uM): −14.63%
- SAP % ([2]; R/Q/N 10/0/0 uM): 30.24%
- SAP % Change ([2]; R/Q/N 10/0/0 uM): −16.67%
- SAP % (POAG subject platelets; R/Q/N 1/0/0 uM): 53.30%
- SAP % Change (POAG subject platelets; R/Q/N 1/0/0 uM): −6.29%
- SAP % (POAG subject platelets; R/Q/N 5/0/0 uM): 53.78%
- SAP % Change (POAG subject platelets; R/Q/N 5/0/0 uM): −5.45%
- SAP % (POAG subject platelets; R/Q/N 10/0/0 uM): 43.53%
- SAP % Change (POAG subject platelets; R/Q/N 10/0/0 uM): −23.47%

Compound: O=C(NC[C@H]1CN(c2ccc(N3CCOCC3=O)cc2)C(=O)O1)c1ccc(Cl)s1 [Rivaroxaban]
- Thrombin % Decrease (thrombin production; 1 μM, Alzheimer's (n = 6)): −186.56%
- Thrombin % Decrease (thrombin production; 1 μM, Control (n = 6)): −183.06%
- Thrombin % Decrease (thrombin production; 1 μM, POAG (n = 6)): −184.65%
- SAP % Decrease (SAPs; 1 μM, Alzheimer's (n = 6)): −15.63%
- SAP % Decrease (SAPs; 1 μM, Control (n = 6)): −23.38%
- SAP % Decrease (SAPs; 1 μM, POAG (n = 6)): −48.73%

Compound: Dabigatran
- Thrombin % Decrease (thrombin production; 100 μM, Alzheimer's (n = 6)): −109.55%
- Thrombin % Decrease (thrombin production; 100 μM, Control (n = 6)): −101.97%
- Thrombin % Decrease (thrombin production; 100 μM, POAG (n = 6)): −100.45%
- SAP % Decrease (SAPs; 100 μM, Alzheimer's (n = 6)): −8.09%
- SAP % Decrease (SAPs; 100 μM, Control (n = 6)): −0.16%
- SAP % Decrease (SAPs; 100 μM, POAG (n = 6)): −11.21%
